For 50 compounds, glass transition temperature results are on record in the PolyMetriX glass transition set.

Compound `*/C(OC)=C(\OC)c1ccc(*)s1` (repeat unit) yielded a glass transition temperature of 91.00 °C.

On to `*=Nc1ccc(C(C)(C)c2ccc(C(C)(C)c3ccc(/N=C4/OC(=O)c5ccc(Oc6ccc7c(c6)C(=O)OC7=*)cc54)cc3)cc2)cc1` (repeat unit), for which the glass transition temperature was found to be 249.00 °C.

In the case of `*C(=O)Nc1ccc(C(c2ccc(NC(=O)c3ccc4c(c3)C(=O)N(c3ccc(-c5ccc(N6C(=O)c7ccc(*)cc7C6=O)c(OC)c5)cc3OC)C4=O)cc2)(C(F)(F)F)C(F)(F)F)cc1` (repeat unit), the glass transition temperature is 250.00 °C.

Turning to `*C(=O)c1ccc2c(c1)C(=O)N(c1ccc(-c3cc(C(C)(C)C)c(Oc4ccc(N5C(=O)c6ccc(*)cc6C5=O)cc4)c(C(C)(C)C)c3)cc1)C2=O` (repeat unit), the glass transition temperature came to 347.50 °C.

Turning to `*C(=O)c1ccc2c(c1)C(=O)N(c1ccc(-c3cc(C(C)(C)C)c(Oc4ccc(N5C(=O)c6ccc(*)cc6C5=O)cc4C(F)(F)F)c(C(C)(C)C)c3)cc1)C2=O` (repeat unit), the glass transition temperature worked out at 362.00 °C.

Turning to `*C(=O)c1ccc2c(c1)C(=O)N(c1ccc(C(C)(C)c3cccc(C(C)(C)c4ccc(N5C(=O)c6ccc(*)cc6C5=O)cc4)c3)cc1)C2=O` (repeat unit), the glass transition temperature was 316.50 °C.

Regarding `*C(=O)c1ccc2c(c1)C(=O)N(c1ccc(Oc3ccccc3Oc3ccc(N4C(=O)c5ccc(*)cc5C4=O)cc3C(F)(F)F)c(C(F)(F)F)c1)C2=O` (repeat unit), the glass transition temperature was 236.00 °C.

Compound `*C(=O)c1ccc2c(c1)C(=O)N(c1ccc(Sc3ccc(N4C(=O)c5ccc(*)cc5C4=O)cc3)cc1)C2=O` (repeat unit) yielded a glass transition temperature of 276.00 °C.

In the case of `*C(=O)c1ccc2c(c1)C(=O)N(c1ccc3c(c1)Cc1cc(N4C(=O)c5ccc(*)cc5C4=O)ccc1-3)C2=O` (repeat unit), the glass transition temperature was determined as 341.50 °C.

The compound `*C(=O)c1ccc2c(c1)C(=O)N(c1cccc(C(O)c3cccc(N4C(=O)c5ccc(*)cc5C4=O)c3)c1)C2=O` (repeat unit) showed a glass transition temperature of 292.00 °C.

Turning to `*C(=O)c1ccc2c(c1)C(=O)N(c1cccc(C(c3ccccc3)(c3cccc(N4C(=O)c5ccc(*)cc5C4=O)c3)C(F)(F)F)c1)C2=O` (repeat unit), the glass transition temperature amounted to 311.00 °C.

Regarding `*CCCCCCCCCCCCCCc1ccc(-c2c(-c3ccccc3)cc(-c3ccc(-c4cc(-c5ccccc5)c(-c5ccc(*)cc5)c(-c5ccccc5)c4-c4ccccc4)cc3)c(-c3ccccc3)c2-c2ccccc2)cc1` (repeat unit), the glass transition temperature came to 185.00 °C.

With `*CCCCCCCCCCc1ccc(-c2c(-c3ccccc3)cc(-c3ccc(-c4cc(-c5ccccc5)c(-c5ccc(*)cc5)c(-c5ccccc5)c4-c4ccccc4)cc3)c(-c3ccccc3)c2-c2ccccc2)cc1` (repeat unit), the glass transition temperature is 235.00 °C.

`*CCCCCCN1C(=O)C(=O)N(c2ccc(Cc3ccc(N4C(=O)C(=O)N(*)C4=O)cc3)cc2)C1=O` (repeat unit) gave a glass transition temperature of 158.00 °C.

Turning to `*CCCCCCc1ccc(-c2c(-c3ccccc3)cc(-c3ccc(-c4cc(-c5ccccc5)c(-c5ccc(*)cc5)c(-c5ccccc5)c4-c4ccccc4)cc3)c(-c3ccccc3)c2-c2ccccc2)cc1` (repeat unit), the glass transition temperature was found to be 250.00 °C.

The compound `*CCCCCCc1ccc(-c2c(-c3ccccc3)cc(-c3cccc(-c4cc(-c5ccccc5)c(-c5ccc(*)cc5)c(-c5ccccc5)c4-c4ccccc4)c3)c(-c3ccccc3)c2-c2ccccc2)cc1` (repeat unit) registered a glass transition temperature of 215.00 °C.

Regarding `*CCCCOC(=O)Nc1ccc(-c2ccc(NC(=O)OCCCCn3c4ccccc4c4cc(/C=C(\C#N)C(=O)OCCCCCCOC(=O)/C(C#N)=C/c5ccc6c(c5)c5ccccc5n6*)ccc43)c(C)c2)cc1C` (repeat unit), the glass transition temperature turned out to be 113.00 °C.

For the compound `*CCN(CCOC(=O)Nc1ccc(-c2ccc(NC(=O)O*)c(OC)c2)cc1OC)c1ccc(/N=N/c2ccc([N+](=O)[O-])cc2)cc1` (repeat unit), the glass transition temperature worked out at 140.00 °C.

`*CNC(=O)OC(c1ccco1)C(OC(=O)NCc1ccc(C(C)(C)c2ccc(*)o2)o1)c1ccco1` (repeat unit) displayed a glass transition temperature of 45.00 °C.

`*Cc1ccc(C(C)(C)c2ccc(CN3C(=O)c4ccc(Oc5ccc6c(c5)C(=O)N(*)C6=O)cc4C3=O)o2)o1` (repeat unit) registered a glass transition temperature of 116.00 °C.

The compound `*Cc1ccc(C(C)(C)c2ccc(Cn3c(=O)c4cc5c(=O)n(*)c(=O)c5cc4c3=O)o2)o1` (repeat unit) yielded a glass transition temperature of 138.00 °C.

Turning to `*Nc1ccc(C(C)(C)c2ccc(NC(=O)c3cc(C(*)=O)cc(S(=O)(=O)c4ccccc4)c3)cc2)cc1` (repeat unit), the glass transition temperature was 287.00 °C.

`*Nc1ccc(C(C)(C)c2cccc(C(C)(C)c3ccc(Nc4ccc(C(=O)c5ccc(C(=O)c6ccc(*)cc6)cc5)cc4)cc3)c2)cc1` (repeat unit): the glass transition temperature came to 177.00 °C.

Compound `*Oc1ccc(C(=O)Nc2cc(C(c3ccc(C)c(NC(=O)c4ccc(OC(=O)c5ccc(C(*)=O)cc5)cc4)c3)(C(F)(F)F)C(F)(F)F)ccc2C)cc1` (repeat unit) showed a glass transition temperature of 213.00 °C.

In turn, `*Oc1ccc(C(C)(C)c2ccc(OC(=O)C3CCC(C(*)=O)CC3)cc2)cc1` (repeat unit) displayed a glass transition temperature of 150.00 °C.

`*c1ccc(-c2cc(C(C)(C)C)c(Oc3ccc(N4C(=O)c5ccc(-c6ccc7c(c6)C(=O)N(*)C7=O)cc5C4=O)cc3)c(C(C)(C)C)c2)cc1` (repeat unit): the glass transition temperature amounted to 381.50 °C.

Turning to `*c1ccc(-c2cc(C(C)(C)C)c(Oc3ccc(N4C(=O)c5ccc(Oc6ccc7c(c6)C(=O)N(*)C7=O)cc5C4=O)cc3)c(C(C)(C)C)c2)cc1` (repeat unit), the glass transition temperature came to 342.00 °C.

For `*c1ccc(-c2ccc(N3C(=O)c4ccc(-c5cccc6c5C(=O)N(*)C6=O)cc4C3=O)c(C)c2)cc1C` (repeat unit), the glass transition temperature was determined as 384.00 °C.

The compound `*c1ccc(-c2ccc(N3C(=O)c4ccc(Oc5ccc(Oc6ccc7c(c6)C(=O)N(*)C7=O)cc5)cc4C3=O)c(OC)c2)cc1OC` (repeat unit) had a glass transition temperature of 274.00 °C.

`*c1ccc(C(C#N)(C(=O)OCC(C)C)C(*)(C#N)C(=O)OCC(C)C)cc1` (repeat unit) had a glass transition temperature of 108.00 °C.

In the case of `*c1ccc(C(C#N)(C(=O)OCC)C(*)(C#N)C(=O)OCC)cc1` (repeat unit), the glass transition temperature was 108.00 °C.

For the compound `*c1ccc(C(C)(C)c2ccc(C(C)(C)c3ccc(N4C(=O)c5ccc(Oc6ccc7ccc(Oc8ccc9c(c8)C(=O)N(*)C9=O)cc7c6)cc5C4=O)cc3)cc2)cc1` (repeat unit), the glass transition temperature is 246.00 °C.

In the case of `*c1ccc(C(c2ccccc2)c2ccc(-n3c(=O)c4cc5c(=O)n(*)c(=O)c5cc4c3=O)cc2)cc1` (repeat unit), the glass transition temperature amounted to 321.00 °C.

The compound `*c1ccc(C(c2ccccc2)c2ccc(N(*)c3ccc(C)cc3)cc2)cc1` (repeat unit) registered a glass transition temperature of 199.00 °C.

In turn, `*c1ccc(C)c(N2C(=O)c3ccc(S(=O)(=O)c4ccc5c(c4)C(=O)N(*)C5=O)cc3C2=O)c1` (repeat unit) had a glass transition temperature of 348.00 °C.

Turning to `*c1ccc(C2(c3ccc(-c4cc(-c5ccccc5)c5cc(C6(c7ccc8nc(*)cc(-c9ccccc9)c8c7)c7ccccc7-c7ccccc76)ccc5n4)cc3)c3ccccc3-c3ccccc32)cc1` (repeat unit), the glass transition temperature is 390.00 °C.

For `*c1ccc(C2(c3ccc(-c4cc(-c5ccccc5)c5cc(Oc6ccc7nc(*)cc(-c8ccccc8)c7c6)ccc5n4)cc3)c3ccccc3-c3ccccc32)cc1` (repeat unit), the glass transition temperature is 310.00 °C.

In the case of `*c1ccc(C2C3C(=O)N(c4ccc(N5C(=O)C6ON(C)C(*)C6C5=O)cc4)C(=O)C3ON2C)cc1` (repeat unit), the glass transition temperature is 67.00 °C.

Take `*c1ccc(Cc2ccc(-n3nc(-c4ccccc4)cc3-c3cccc(-c4cc(-c5ccccc5)nn4*)c3)cc2)cc1` (repeat unit): the glass transition temperature was 225.00 °C.

As for `*c1ccc(Cc2ccc(-n3nccc3-c3ccc(-c4ccnn4*)cc3)cc2)cc1` (repeat unit), the glass transition temperature is 202.00 °C.

Compound `*c1ccc(Cc2ccc(S(*)(=O)=O)cc2)cc1` (repeat unit) came in with a glass transition temperature of 227.50 °C.

With `*c1ccc(N(c2ccc(C#N)cc2)c2ccc(N3C(=O)c4ccc(-c5ccc6c(c5)C(=O)N(*)C6=O)cc4C3=O)cc2)cc1` (repeat unit), the glass transition temperature was 358.00 °C.

The compound `*c1ccc(N(c2ccc(C#N)cc2)c2ccc(N3C(=O)c4ccc(Oc5ccc6c(c5)C(=O)N(*)C6=O)cc4C3=O)cc2)cc1` (repeat unit) gave a glass transition temperature of 304.00 °C.

Regarding `*c1ccc(NC(=O)Nc2ccc(NC(=O)Nc3ccc(-c4nc(C#N)c(C#N)nc4*)cc3)cc2)cc1` (repeat unit), the glass transition temperature stood at 248.70 °C.

The compound `*c1ccc(Nc2ccc(C3(c4ccc(Nc5ccc(S(*)(=O)=O)cc5)c(C)c4)c4ccccc4-c4ccccc43)cc2C)cc1` (repeat unit) yielded a glass transition temperature of 269.00 °C.

On to `*c1ccc(Nc2ccc(C3(c4ccc(Nc5ccc(S(*)(=O)=O)cc5)cc4)c4ccccc4-c4ccccc43)cc2)cc1` (repeat unit), for which the glass transition temperature turned out to be 221.00 °C.

For the compound `*c1ccc2c(c1)C(=O)N(c1ccc(C(C)(C)c3ccc(C(C)(C)c4ccc(N5C(=O)c6ccc(C(*)(C(F)(F)F)C(F)(F)F)cc6C5=O)cc4)cc3)cc1)C2=O` (repeat unit), the glass transition temperature is 235.40 °C.

In the case of `*c1ccc2c(c1)C(=O)N(c1ccc(C(C)(C)c3ccc(N4C(=O)c5ccc(C(*)(C(F)(F)F)C(F)(F)F)cc5C4=O)cc3)cc1)C2=O` (repeat unit), the glass transition temperature stood at 310.00 °C.

The compound `*c1ccc2c(c1)C(=O)N(c1ccc(C(c3ccc(C)c(N4C(=O)c5ccc(C(*)(C(F)(F)F)C(F)(F)F)cc5C4=O)c3)(C(F)(F)F)C(F)(F)F)cc1C)C2=O` (repeat unit) yielded a glass transition temperature of 266.00 °C.

`*c1ccc2c(c1)C(=O)N(c1ccc(N(c3ccc(C#N)cc3)c3ccc(N4C(=O)c5ccc(C(*)(C(F)(F)F)C(F)(F)F)cc5C4=O)cc3)cc1)C2=O` (repeat unit) showed a glass transition temperature of 321.00 °C.
